# Experimental data from patent US20080119445A1, “METHODS OF FEMALE SEXUAL ENHANCEMENT” (priority 2004, published 2008).
# Structures can show the parent of a compound that is named as a salt.
# Legend:
# women [1] = test: unpublished clinical study of DHEA cream (transdermal) or pellets (subcutaneous) in women; assay type: in vivo, human
# From the text: A third embodiment of the present invention comprises a new use of a well-established steroid hormone. The invention includes both the topical application of the hormone in cream form and the subcutaneous implantation of the hormone in pellet form for the purpose of female sexual enhancement.
# The hormone is dehydroepiandrosterone (DHEA) and the carrying agent for its topical use is a proprietary compound, Q-base cream. Q-base cream is available to compound pharmacies all over the United States and consists of the following formulation: • purified water, cyclomethicone, octyl stearate, arlacel 165 (PEG-100 stearate/glyceryl stearate), sorbitol, green tea extract (organic), stearyl alcohol, cyclopentasiloxane and PEG/PPG-18/18 dimethicone, gingko extract (organic), ginseng extract (organic), tocotrienols, vitamin E acetate, wheat germ oil, edetate disodium, xanthan gum, vitamin A palmitate, coenzyme Q10, methylchloroisothiazolinone/methylisothiazolin one.
# Alternatively, the carrying agent for the DHEA may comprise H-base cream. The formula for H-base cream is as follows: • water, glycerin, canola oil, stearic acid, cetyl alcohol, PEG-100 stearate, glyceryl stearate, dimethicone, magnesium aluminum silicate, propylene glycol, triethanolamine, polysorbate 60, xanthan gum, bitter almond kernel oil, aloe vera, grape seed extract, wheat germ oil, vitamin E acetate, vitamin A palmitate, Vitamin C palmitate, tetrasodium EDTA, potassium sorbate, diazolidinyl urea. H base cream is a proprietary product produced by Professional Compounds Centers of America and licensed by it.
# The method of application of either the Q-base cream/DHEA mixture or the H-base cream/DHEA mixture in females is local application to the erectile tissue of the nipples and glans clitoris. The ratio of ingredients comprising the Q-base cream/DHEA mixture is between about 25 mg and about 50 mg of DHEA to about 1 cc of Q-base cream. The ratio of ingredients comprising the H-base cream/DHEA mixture is substantially the same. The resulting mixture is applied one time per day but not related to intercourse. Implantation of subcutaneous DHEA pellets is at the strength of about 25 mg of DHEA per pellet at intervals of between about 2 months and about 3 months. […] Normal levels are considered to be 50-100 picograms per milliliter.
# In an unpublished clinical study of the third embodiment of the invention over the past three years patient acceptance and satisfaction has been clear-cut and in excess of 95%. The response is dependent on the patient having normal blood levels of estradiol and testosterone as well. A normal level of DHEA is about 50 to about 100 picograms per milliliter. A normal level of estradiol is about 50 to about 100 picograms per milliliter and a normal level of testosterone is about 200 to about 540 picograms per milliliter. Normal ranges for all these levels can vary from laboratory to laboratory.
# women [2] = settings: headaches, facial flushing, nasal congestion, indigestion, bluish tinge to vision, blindness; cited from earlier work
# women [3] = settings: widely used for years; cited from earlier work
# women [4] = test: administration of vardenafil hydrochloride or tadalafil to women prior to sexual activity; assay type: in vivo, human
# Experimental: More particularly, the initial step in the process comprising the first embodiment of the invention comprises identifying a woman desiring sexual enhancement. […] Thereafter, the woman's blood is tested to determine the levels of estradiol and testosterone. If the woman's blood contains an estradiol level within a first predetermined range and a testosterone level within a second predetermined range, the process of the present invention continues. If not, the woman is treated utilizing conventional techniques to bring the level of estradiol in her blood to within the first predetermined range and/or to bring the level of testosterone in her blood to within the second predetermined range. […]
# After the required levels of estradiol and testosterone in the woman's blood have either been confirmed or established, a drug selected from the group consisting of vardenafil hydrochloride and tadalafil is administered to the woman prior to sexual activity. […] It has been determined that the selected drug should be administered at least 15-20 minutes prior to the beginning of sexual activity. The optimum time interval between administration of the selected drug and the beginning of sexual activity may vary depending on the particular circumstances and is best determined by the woman through experimentation. […]
# women [5] = settings: normal estradiol and testosterone levels not established before the drug was used; cited from earlier work
compound,measurement,setting,value
"C[C@]12CC[C@H](O)CC1=CC[C@@H]1[C@@H]2CC[C@]2(C)C(=O)CC[C@@H]12 [DHEA, dehydroepiandrosterone]","blood levels, cream versus subcutaneous pellets",women [1]; cream once per day versus about 25 mg pellet every 2 to 3 months,Identical blood levels are achieved with both methods of application
same,patient acceptance and satisfaction,"women [1]; third embodiment, over the past three years, normal blood levels of estradiol and testosterone",> 95%
same,female sexual pleasure and satisfaction including sexual arousal and achievement of orgasm,"women [1]; transdermal or subcutaneous, women with normal estradiol and testosterone",enhanced
same,"blood level above which excess androgen complications occur (male pattern hair loss, excess facial hair growth, acne)",women [1]; women,exceed 100 picograms per milliliter
same,safety profile of administration,women [1]; women,extraordinary
"CCCc1nn(C)c2c(=O)[nH]c(-c3cc(S(=O)(=O)N4CCN(C)CC4)ccc3OCC)nc12 [VIAGRA, sildenafil citrate]",side effects observed in women using the drug for sexual enhancement,women [2],unacceptable side effects
CN1CC(=O)N2[C@H](c3ccc4c(c3)OCO4)c3[nH]c4ccccc4c3C[C@@H]2C1=O [tadalafil],safety profile,women [3],remarkable safety profiles
CCCc1nc(C)c2c(=O)[nH]c(-c3cc(S(=O)(=O)N4CCN(CC)CC4)ccc3OCC)nn12 [vardenafil hydrochloride],safety profile,women [3],remarkable safety profiles
same,enhancement of sexual arousal and sexual satisfaction in females,women [4]; drug given prior to sexual activity,significant enhancement
same,efficacy in women compared with men,"women [4]; experiences over the past 2 years, lower dosage, used correctly (normal estradiol and testosterone)",even more effective (lower dosage) in women than in men
same,efficacy in women,women [5],ineffective in women
